Data reported in patent US8361998B2, “Compounds and their use as IKACh blockers” (AstraZeneca AB, priority 2010, dated 2013).
Where a name gives a salt, the structure may show the parent alone. Read-outs that look alike come from different tables or passages of the source.

Target: T1, human cardiac ion channel proteins hKir3.1/Kir3.4 (Homo sapiens, UniProt P48544+P48549)
T1 construct: expressed in transfected cells
T1 sequence (P48549 1-501): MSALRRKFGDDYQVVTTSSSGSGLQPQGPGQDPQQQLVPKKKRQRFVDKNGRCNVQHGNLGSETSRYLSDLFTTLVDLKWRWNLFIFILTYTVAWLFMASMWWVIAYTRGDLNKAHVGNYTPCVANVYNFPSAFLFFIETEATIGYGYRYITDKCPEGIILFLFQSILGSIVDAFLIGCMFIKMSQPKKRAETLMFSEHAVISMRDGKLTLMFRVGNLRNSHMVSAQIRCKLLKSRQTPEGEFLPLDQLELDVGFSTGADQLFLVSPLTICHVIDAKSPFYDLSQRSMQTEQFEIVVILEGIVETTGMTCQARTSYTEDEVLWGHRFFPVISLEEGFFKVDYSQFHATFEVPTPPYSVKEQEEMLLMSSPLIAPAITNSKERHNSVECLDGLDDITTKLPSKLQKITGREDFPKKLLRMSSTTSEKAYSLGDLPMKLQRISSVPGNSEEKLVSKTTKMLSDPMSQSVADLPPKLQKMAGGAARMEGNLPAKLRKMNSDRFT
T1 sequence (P48544 1-419): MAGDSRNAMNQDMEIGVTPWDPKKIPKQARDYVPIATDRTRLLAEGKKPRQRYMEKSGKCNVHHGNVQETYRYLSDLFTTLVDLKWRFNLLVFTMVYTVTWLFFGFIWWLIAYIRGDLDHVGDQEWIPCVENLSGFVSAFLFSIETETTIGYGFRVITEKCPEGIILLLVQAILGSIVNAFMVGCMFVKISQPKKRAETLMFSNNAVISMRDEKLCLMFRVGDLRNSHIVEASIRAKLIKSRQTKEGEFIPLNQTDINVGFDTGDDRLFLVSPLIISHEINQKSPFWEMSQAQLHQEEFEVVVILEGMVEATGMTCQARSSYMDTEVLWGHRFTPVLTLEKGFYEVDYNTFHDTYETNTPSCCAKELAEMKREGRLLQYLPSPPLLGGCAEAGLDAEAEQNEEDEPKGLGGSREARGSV
Assay: Atomic Absorption Screening (AAS) Rb efflux assay of hKir3.1/Kir3.4 block, carbachol/high K+ stimulated, 10-pt or 7-pt CR
Assay type: cell-based
Settings: AAS Rb efflux, CHO-K1 cells expressing hKir3.1/Kir3.4
Summary of the method: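 CHO-K1 cells stably co-expressing human Kir3.1/Kir3.4 were Rb-loaded for 3 h at 37° C, preincubated with compound 5 min at RT, then stimulated 10 min with 10 μM carbachol plus 20 mM KCl (final). Supernatant Rb was measured by atomic absorption. Compounds ran at 0.003–67 μmol/L (10-pt) or 0.037–27 μmol/L (7-pt), threefold dilutions; IC50s are means of >4 or >3 replicates respectively.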

[1] = 10-pt CR (0.003 to 67 μmol/L), mean of >4 replicates, read-out: IKACh IC50 10-pt CR, AAS
[2] = 7-pt CR (0.037 to 27 μmol/L), mean of >3 replicates, read-out: IKACh IC50 7-pt CR, AAS

SMILES	IC50 [1]	IC50 [2]
CCC[C@@H](CN1CCC1)N(C)C(=O)c1ccc(Cl)cc1 [Example 1.2, (S)-N-(1-(Azetidin-1-yl)pentan-2-yl)-4-chloro-N-methylbenzamide]	3600 nM	
CCC[C@@H](CN1CCC1)N(C)C(=O)c1ccc(F)c(C)c1 [Example 1.4, (S)-N-(1-(Azetidin-1-yl)pentan-2-yl)-4-fluoro-N,3-dimethyl-benzamide]	3700 nM	
CC(C)[C@@H](CN1CCCC1)N(C)C(=O)c1ccc(F)cc1Cl [Example 1.17, (S)-2-Chloro-4-fluoro-N-methyl-N-(3-methyl-1-(pyrrolidin-1-yl)butan-2-yl)benzamide]	4200 nM	2800 nM
Cc1cc(C(=O)N(C)[C@H](CN2CCC2)C2CC2)ccc1F [Example 4.1, (S)—N-(2-(Azetidin-1-yl)-1-cyclopropylethyl)-4-fluoro-N,3-dimethylbenzamide]	5900 nM	
CN(C(=O)c1ccc(Br)cc1)[C@H](CN1CC(O)C1)C1CC1 [Example 4.4, (S)-4-Bromo-N-(1-cyclopropyl-2-(3-hydroxyazetidin-1-yl)ethyl)-N-methylbenzamide]	590 nM	
CC(C)[C@@H](CN1CCC1)N(C)C(=O)c1ccc(Cl)cc1 [Example 5.1, (S)-N-(1-(Azetidin-1-yl)-3-methylbutan-2-yl)-4-chloro-N-methylbenzamide]	6000 nM	
CC(C)[C@@H](CN1CCC1)N(C)C(=O)c1ccc(Br)cc1.O=C(O)CCC(=O)O [Example 5.2]	1800 nM	
Cc1cc(C(=O)N(C)[C@H](CN2CC(O)C2)C(C)C)ccc1F [Example 6.1, (S)-4-Fluoro-N-(1-(3-hydroxyazetidin-1-yl)-3-methylbutan-2-yl)-N,3-dimethylbenzamide]	1500 nM	
CC(C)[C@@H](CN1CC(O)C1)N(C)C(=O)c1ccc(Cl)cc1 [Example 6.2, (S)-4-Chloro-N-(1-(3-hydroxyazetidin-1-yl)-3-methylbutan-2-yl)-N-methylbenzamide]	2600 nM	
Cc1cc(C(=O)N(C)[C@H](CN2CC(O)C2)C2CC2)ccc1F [Example 7.1, (S)—N-(1-Cyclopropyl-2-(3-hydroxyazetidin-1-yl)ethyl)-4-fluoro-N,3-dimethylbenzamide]	1300 nM	
CN(C(=O)c1ccc(Cl)cc1)[C@H](CN1CC(O)C1)C1CC1 [Example 7.2, (S)-4-Chloro-N-(1-cyclopropyl-2-(3-hydroxyazetidin-1-yl)ethyl)-N-methylbenzamide]	1800 nM	
CN(C(=O)c1ccc(F)c(Cl)c1)[C@H](CN1CC(O)C1)C1CC1 [Example 7.3, (S)-3-Chloro-N-(1-cyclopropyl-2-(3-hydroxyazetidin-1-yl)ethyl)-4-fluoro-N-methylbenzamide]	1900 nM	
CCC[C@@H](CN1CC(O)C1)N(C)C(=O)c1ccc(F)c(F)c1 [Example 8.1, (S)-3,4-Difluoro-N-(1-(3-hydroxyazetidin-1-yl)pentan-2-yl)-N-methylbenzamide]	1700 nM	
CCC[C@@H](CN1CC(O)C1)N(C)C(=O)c1ccc(Cl)cc1 [Example 8.2, (S)-4-Chloro-N-(1-(3-hydroxyazetidin-1-yl)pentan-2-yl)-N-methyl-benzamide, hydrochloride]	880 nM	
CCC[C@@H](CN1CC(O)C1)N(C)C(=O)c1ccc(F)cc1 [Example 8.6, (S)-4-Fluoro-N-(1-(3-hydroxyazetidin-1-yl)pentan-2-yl)-N-methylbenzamide]	8500 nM	
CC(C)[C@@H](CN1CC[C@H](O)C1)N(C)C(=O)c1ccc(Cl)cc1 [Example 10.2, 4-Chloro-N-((S)-1-((S)-3-hydroxypyrrolidin-1-yl)-3-methylbutan-2-yl)-N-methylbenzamide hemi tartrate]	5100 nM	2000 nM
Cc1cc(C(=O)N(C)[C@H](CN2CCCC2)C(C)C)ccc1F [Example 12.1, (S)-4-Fluoro-N,3-dimethyl-N-(3-methyl-1-(pyrrolidin-1-yl)butan-2-yl)benzamide-dihydroxysuccinate]	15000 nM	1400 nM
Cc1cccc(C(=O)N(C)[C@H](CN2CCCC2)C(C)C)c1 [Example 12.2, (S)-1-(2-(N,3-Dimethylbenzamido)-3-methylbutyl)pyrrolidinium 2,3-dihydroxysuccinate]	16000 nM	5800 nM
CC(C)[C@@H](CN1CCCC1)N(C)C(=O)c1ccc(F)c(Cl)c1 [Example 16.55, (S)-3-Chloro-4-fluoro-N-methyl-N-(3-methyl-1-(pyrrolidin-1-yl)butan-2-yl)benzamide]	1900 nM	1400 nM
CC(C)[C@@H](CN1CCCC1)N(C)C(=O)c1ccc(Cl)cc1 [Example 18, (S)-1-(2-(4-Chloro-N-methylbenzamido)-3-methylbutyl)pyrrolidinium chloride]	6800 nM	1200 nM
CC(C)[C@@H](CN1CCCC1)N(C)C(=O)c1ccc(Br)cc1 [Example 19, (S)-1-(2-(4-bromo-N-methylbenzamido)-3-methylbutyl)pyrrolidinium 3-carboxy-2,3-dihydroxypropanoate]	4600 nM	820 nM

Further lines, with some results ahead:

IC50 [1]	SMILES	IC50 [2]
3500 nM	CC[C@H](C)[C@@H](CN1CC(O)C1)N(C)C(=O)c1ccc(C#N)cc1F [Example 29.7, 4-Cyano-2-fluoro-N-((2S,3S)-1-(3-hydroxyazetidin-1-yl)-3-methylpentan-2-yl)-N-methylbenzamide]	
1100 nM	CCCC[C@@H](CN1CC(O)C1)N(C)C(=O)c1ccc(C#N)cc1 [Example 33.4, 4-Cyano-N-[(2S)-1-(3-hydroxyazetidin-1-yl)hexan-2-yl]-N-methylbenzamide]	
550 nM	CCCC[C@@H](CN1CC(O)C1)N(C)C(=O)c1ccc(F)cc1 [Example 33.7, 4-Fluoro-N-[(2S)-1-(3-hydroxyazetidin-1-yl)hexan-2-yl]-N-methylbenzamide]	
1300 nM	CC(C)C[C@@H](CN1CC(O)C1)N(C)C(=O)c1ccc(F)c(F)c1 [Example 38.1, 3,4-Difluoro-N-[(2S)-1-(3-hydroxyazetidin-1-yl)-4-methylpentan-2-yl]-N-methylbenzamide]	
110 nM	CC(C)C[C@@H](CN1CC(O)C1)N(C)C(=O)c1ccc(Cl)cc1 [Example 38.2, 4-Chloro-N-[(2S)-1-(3-hydroxyazetidin-1-yl)-4-methylpentan-2-yl]-N-methylbenzamide]	
3400 nM	CC(C)C[C@@H](CN1CC(O)C1)N(C)C(=O)c1ccc(C#N)cc1F [Example 38.6, 4-Cyano-2-fluoro-N-[(2S)-1-(3-hydroxyazetidin-1-yl)-4-methylpentan-2-yl]-N-methylbenzamide]	
490 nM	CN(C(=O)c1ccc(C#N)cc1)[C@H](CN1CC(O)C1)C1CCC1 [Example 39.2, (S)-4-Cyano-N-(1-cyclobutyl-2-(3-hydroxyazetidin-1-yl)ethyl)-N-methylbenzamide]	
3900 nM	CC[C@@H](CN1CC(O)C1)N(C)C(=O)c1ccc(Cl)cc1 [Example 39.12, (S)-4-Chloro-N-(1-(3-hydroxyazetidin-1-yl)butan-2-yl)-N-methylbenzamide]	
72 nM	CN(C(=O)c1ccc(Cl)cc1)[C@H](CN1CC(O)C1)C1CCC1 [Example 39.14, (S)-4-Chloro-N-(1-cyclobutyl-2-(3-hydroxyazetidin-1-yl)ethyl)-N-methylbenzamide]	
78 nM	Cc1cc(C(=O)N(C)[C@H](CN2CC(O)C2)C2CCC2)ccc1F [Example 39.16, (S)—N-(1-Cyclobutyl-2-(3-hydroxyazetidin-1-yl)ethyl)-4-fluoro-N,3-dimethylbenzamide]	
